The molecules below were run against Bcl-xL (assay: Inhibition of GST fused Bcl-xL binding to biotinylated 16 mer Bak-BH3 peptide by HTRF-LANCE assay).

IC50	Compound
6.79 µM	Cc1cc(C(=O)N(c2ccccc2)c2ccccc2)nn1-c1ccccc1C(=O)N1Cc2ccccc2C[C@H]1CN(C)C [1-(2-((S)-3-((dimethylamino)methyl)-1,2,3,4-tetrahydroisoquinoline-2-carbonyl)phenyl)-5-methyl-N,N-diphenyl-1H-pyrazole-3-carboxamide]
9.69 µM	CC(=O)NC[C@@H]1Cc2ccccc2CN1C(=O)c1ccccc1-n1nc(C(=O)N(c2ccccc2)c2ccccc2)cc1C [1-(2-((S)-3-(acetamidomethyl)-1,2,3,4-tetrahydroisoquinoline-2-carbonyl)phenyl)-5-methyl-N,N-diphenyl-1H-pyrazole-3-carboxamide]
11.4 µM	Cc1cc(C(=O)N(c2ccccc2)c2ccccc2)nn1-c1ccccc1C(=O)N1Cc2ccccc2C[C@H]1CN [1-(2-((S)-3-(aminomethyl)-1,2,3,4-tetrahydroisoquinoline-2-carbonyl)phenyl)-5-methyl-N,N-diphenyl-1H-pyrazole-3-carboxamide]
5.57 µM	COC[C@@H]1Cc2ccccc2CN1C(=O)c1ccccc1-n1nc(C(=O)N(c2ccccc2)c2ccccc2)cc1C [1-(2-((S)-3-(methoxymethyl)-1,2,3,4-tetrahydroisoquinoline-2-carbonyl)phenyl)-5-methyl-N,N-diphenyl-1H-pyrazole-3-carboxamide]
2.41 µM	Cc1c(Br)c(C(=O)N(c2ccccc2)c2ccccc2)nn1-c1ccccc1C(=O)N1Cc2ccccc2C[C@H]1CO [4-bromo-1-(2-((S)-3-(hydroxymethyl)-1,2,3,4-tetrahydroisoquinoline-2-carbonyl)phenyl)-5-methyl-N,N-diphenyl-1H-pyrazole-3-carboxamide]
2.28 µM	Cc1c(Cl)c(C(=O)N(c2ccccc2)c2ccccc2)nn1-c1ccccc1C(=O)N1Cc2ccccc2C[C@H]1CO [4-chloro-1-(2-((S)-3-(hydroxymethyl)-1,2,3,4-tetrahydroisoquinoline-2-carbonyl)phenyl)-5-methyl-N,N-diphenyl-1H-pyrazole-3-carboxamide]
12.6 µM	CNC[C@@H]1Cc2ccccc2CN1C(=O)c1ccccc1-n1nc(C(=O)N(c2ccccc2)c2ccccc2)cc1C [5-methyl-1-(2-((S)-3-((methylamino)methyl)-1,2,3,4-tetrahydroisoquinoline-2-carbonyl)phenyl)-N,N-diphenyl-1H-pyrazole-3-carboxamide]
18 µM	CCOC(=O)[C@@H]1Cc2ccccc2CN1C(=O)c1ccccc1-n1nc(C(=O)N(c2ccccc2)c2ccccc2)cc1C [(3S)-ethyl 2-(2-(3-(diphenylcarbamoyl)-5-methyl-1H-pyrazol-1-yl)benzoyl)-1,2,3,4-tetrahydroisoquinoline-3-carboxylate]
